Measured values reported in patent US11917959B2, “Multi-ear system to enhance monocot plant yield” (Monsanto Technology LLC, priority 2015, dated 2024).

Test system: diploid maize plant
Assay: Multibud induction in vitro, embryo axis method (Example 8)
Format: in vivo
Protocol: Seeds of a diploid maize plant were surface sterilized comprising immersion using standard methods of the art and then germinated in vitro in growth media. One of the resulting seedlings was dissected from its seed two days after germination (embryo axis method). The dissected axis was then subjected to a multibud induction treatment comprising transfer to fresh multibud induction media containing cytokinin in the form of 10 mg/L BAP. After seven days in the multibud bud induction media, the treated seedlings were transferred back to a hormone-free regeneration media. […] These multibuds were dissected from the mother plant and transferred to rooting media comprising IBA and IAA. After approximately one week, the multibud-derived plants were transplanted into 10 inch pots and allowed to grow in a greenhouse until it was clear that each autonomously-growing multibud-derived shoot had formed ears and tassels that nicked. Each ear was then pollinated from the tassel growing in the same pot and then all plants were allowed to grow in greenhouse conditions until seed set.

SMILES: c1ccc(CNc2ncnc3nc[nH]c23)cc1 [BAP, 6-Benzylaminopurine, N-(Phenylmethyl)-7H-pruin-6-amine]
- seed borne by ears of multibud-derived plants (10 mg/L BAP): dozens of seed each
- multibud formation (10 mg/L BAP for seven days, after approximately twenty days): induced multibuds could be seen growing from the nodal regions of the stem
